Test results as given in patent publication EP0019739A1, “2-Aminoalkyl-5-pyridinoles, process for their preparation and pharmaceutical preparations containing them” (CIBA-GEIGY AG, priority 1979, dated 1980).

Test: Pharmacological activity, test not specified
Details: compared with the racemic dihydrochloride (starting material of Example 2) and the levorotatory salt

**Q.** For `CC(C)NC(C)Cc1ccc(O)cn1.Cl.Cl` (stereo not shown) [rechtsdrehende Antipode, 2-(2-Isopropylaminopropyl)-5-pyridinol-dihydrochlorid], which pharmakologisch aktiv is on record?
**A.** weniger aktiv
